Columns and labels:
HL-60 = assay: Cell death IC50 by PI staining/FACS; format: cell-based; settings: Human acute promyelocytic leukemia/EBV(−), 0.1–15 µM, 6 h (suspension) or 12 h (adherent cells), mean ± SEM, read-out: Peptide IC50 (µM), cell death, HL-60
Protocol: (§1) Measurement of apoptosis and cell death. Apoptosis was evaluated by TUNEL assay using the In Situ Cell Death Detection Kit™ (Roche). Cells were fixed in 4% paraformaldehyde and labeled with TUNEL reagents. Stained cells were photographed by a fluorescence microscope (11). For cell death analysis, the propidium iodide (PI) staining was performed by addition of 6.25 µg/ml of PI to the cells, and cell death was immediately evaluated by FACS analysis (3).

HMECs = assay: Cell death IC50 by PI staining/FACS; format: cell-based; settings: Human mammary epithelial cells/EBV(−), 0.1–15 µM, 6 h (suspension) or 12 h (adherent cells), mean ± SEM, read-out: Peptide IC50 (µM), cell death, HMECs
Protocol: as §1

Healthy MNCs = assay: Cell death IC50 by PI staining/FACS; format: cell-based; settings: Healthy human mononuclear cells/EBV(−), 0.1–15 µM, 6 h (suspension) or 12 h (adherent cells), mean ± SEM, read-out: Peptide IC50 (µM), cell death, Healthy MNCs
Protocol: as §1

HepG2 = assay: Cell death IC50 by PI staining/FACS; format: cell-based; settings: Human hepatocellular carcinoma/EBV(−), 0.1–15 µM, 6 h (suspension) or 12 h (adherent cells), mean ± SEM, read-out: Peptide IC50 (µM), cell death, HepG2
Protocol: as §1

MCF7 = assay: Cell death IC50 by PI staining/FACS; format: cell-based; settings: Human breast adenocarcinoma/EBV(−), 0.1–15 µM, 6 h (suspension) or 12 h (adherent cells), mean ± SEM, read-out: Peptide IC50 (µM), cell death, MCF7
Protocol: as §1

MM.1R = assay: Cell death IC50 by PI staining/FACS; format: cell-based; settings: Human B lymphoblast/EBV(−), 0.1–15 µM, 6 h (suspension) or 12 h (adherent cells), mean ± SEM, read-out: Peptide IC50 (µM), cell death, MM.1R
Protocol: as §1

NK92 = assay: Cell death IC50 by PI staining/FACS; format: cell-based; settings: Human natural killer non-Hodgkin’s lymphoma/EBV(−), 0.1–15 µM, 6 h (suspension) or 12 h (adherent cells), mean ± SEM, read-out: Peptide IC50 (µM), cell death, NK92
Protocol: as §1

RPMI 8226 = assay: Cell death IC50 by PI staining/FACS; format: cell-based; settings: Human B lymphoblast/EBV(−), 0.1–15 µM, 6 h (suspension) or 12 h (adherent cells), mean ± SEM, read-out: Peptide IC50 (µM), cell death, RPMI 8226
Protocol: as §1

THP1 = assay: Cell death IC50 by PI staining/FACS; format: cell-based; settings: Human monocytic leukemia/EBV(−), 0.1–15 µM, 6 h (suspension) or 12 h (adherent cells), mean ± SEM, read-out: Peptide IC50 (µM), cell death, THP1
Protocol: as §1

BMRF1 = assay: mRNA level by qPCR in SNK6 cells; format: cell-based, EBV; settings: 0.5 µM peptide, 6 h, vs CTL, n = 4 (Fig. 3f)
Protocol: (§2) Fig. 3 Peptide for the last eight aa of HKDC1 at the C-terminal (Tf-D-HKC8) inhibits EBV replication and P-gp expression through ROS generation and DNA damage in ENKTL cells. SNK6 cells were treated with control (CTL), Tf-D-HKN15, Tf-D-HKC15, or Tf-D-HKC8 peptide (0.5 µM) for 6 h and the cells were used for biomedical analysis. a ROS formation, n = 5. b 3-nitrotyrosine (3-NT) formation, n = 5. c 8-OHdG formation, n = 5. d Quantitation of γH2AX formation, n = 5. e Representative western blotting bands for d. f mRNA level by qPCR for BZLF1, BMRF1, and ABCB1, n = 4. g Protein quantitation for Zta, EA-D, and P-gp, n = 5. h Representative pictures of western blots for g. i EBV viral genomes/cell by qPCR, n = 4. *P < 0.05, vs CTL group; ^¶P < 0.05, vs Tf-D-HKC15 group. Results were expressed as mean ± SEM.

BZLF1 = assay: mRNA level by qPCR in SNK6 cells; format: cell-based, EBV; settings: 0.5 µM peptide, 6 h, vs CTL, n = 4 (Fig. 3f)
Protocol: as §2

HKDC1/VDAC1 [1] = molecular target: T1, HKDC1/VDAC1 (Homo sapiens, UniProt P21796); assay: IP/WB association of HKDC1 with VDAC1 in HANK1 cells; format: cell-based; design: endogenous in cells; settings: 0.5 µM peptide, 6 h, compared with CTL group, n = 5 (Fig S3)
Protocol: (§3) Immunoprecipitation (IP) and Western Blotting (WB). Cell lysates were pre-cleared by pre-immune IgG plus Protein A agarose beads for 2 hours, and the supernatants were immunoprecipitated by the indicated antibodies and a 50% slurry of Protein A Agarose beads overnight at 4 °C (9). After washing with buffer containing 50 mM Tris, pH 7.5, 150 mM NaCl, 1% NP-40, and 0.5% deoxycholate with protease inhibitors, proteins were released, separated on 10% SDS-PAGE gels, blotted by primary antibodies, and then simultaneously incubated with the differentially labeled species-specific secondary antibodies, anti-RABBIT IRDye™ 800CW (green) and anti-MOUSE (or goat) ALEXA680 (red). Membranes were scanned and quantitated by the ODYSSEY Infrared Imaging System (LI-COR, NE) (10).
(§4) Figure S3. Peptide Tf-D-HKC8 dissociates HKDC1 from VDAC1 in cancer cells, but little effect on normal cells. Different cells, including HMECS, HANK1 and SW480, were treated by either control (CTL) or Tf-D-HKC8 peptide (0.5µM) for 6 hours, and the cells were used for IP/WB analysis. (a) Representative western blotting bands for IP/WB. (b) Protein quantitation for IP/WB for (a), n=5. *, P<0.05, vs CTL group. Results were expressed as mean ± SEM.

HKDC1/VDAC1 [2] = molecular target: T1, HKDC1/VDAC1; assay: IP/WB association of HKDC1 with VDAC1 in SW480 cells; format: cell-based; design: endogenous in cells; settings: 0.5 µM peptide, 6 h, compared with CTL group, n = 5 (Fig S3)
Protocol: as §3, §4

HKDC1/VDAC1 [3] = molecular target: T1, HKDC1/VDAC1; assay: IP/WB association of HKDC1 with VDAC1 in HMECs; format: cell-based; design: endogenous in cells; settings: 0.5 µM peptide, 6 h, compared with CTL group, n = 5 (Fig S3)
Protocol: as §3, §4

T1 sequence (P21796 2-283 limits assumed): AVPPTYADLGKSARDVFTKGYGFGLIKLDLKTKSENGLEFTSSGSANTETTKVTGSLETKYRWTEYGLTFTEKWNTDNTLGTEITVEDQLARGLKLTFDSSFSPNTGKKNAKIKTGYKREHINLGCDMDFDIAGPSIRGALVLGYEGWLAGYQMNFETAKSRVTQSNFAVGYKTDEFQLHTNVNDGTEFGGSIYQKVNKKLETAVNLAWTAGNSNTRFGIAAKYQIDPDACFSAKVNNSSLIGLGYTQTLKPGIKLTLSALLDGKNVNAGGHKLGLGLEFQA

Substance | IC50 (HL-60) [µM] | IC50 (HMECs) [µM] | IC50 (Healthy MNCs) [µM] | IC50 (HepG2) [µM] | IC50 (MCF7) [µM] | IC50 (MM.1R) [µM] | IC50 (NK92) [µM] | IC50 (RPMI 8226) [µM] | IC50 (THP1) [µM] | BMRF1 mRNA (BMRF1) [%] | BZLF1 mRNA (BZLF1) [%] | association of HKDC1 with VDAC1 in HANK1 cells (HKDC1/VDAC1 [1]) [%] | association of HKDC1 with VDAC1 in SW480 cells (HKDC1/VDAC1 [2]) [%] | association of HKDC1 with VDAC1 in HMECs (HKDC1/VDAC1 [3])
HAIYPRH-ITAVAKRLQQAQKEN [Tf-D-HKC15] | 2.2 ± 0.6 | > 15 | > 15 | > 15 | > 15 | 2.3 ± 0.7 | 1.5 ± 0.6 | 1.9 ± 0.7 | 2.3 ± 0.5 | 65 | 47 | – | – | –
HAIYPRH-LQQAQKEN [Tf-D-HKC8] | 1.7 ± 0.4 | > 15 | > 15 | > 15 | > 15 | 1.6 ± 0.4 | 0.9 ± 0.4 | 1.3 ± 0.6 | 1.8 ± 0.6 | 31 | 21 | 34 | 67 | little effect

Reference: publication PMC7515829, “HKDC1 C-terminal based peptides inhibit extranodal natural killer/T-cell lymphoma by modulation of mitochondrial function and EBV suppression” (Leukemia, 2020)
